Test results reported in PubChem BioAssay AID328 (DTP/NCI, 2004).
“And” between values parts separate entries of the source, which are not always exact repeats. Identical values can stand only once. Inconclusive results and toxic doses are left out. How the source made its calls: active means survival T/C of 150% or more; inactive means T/C below 125% in these data.

System: BDF1 mice, P388 leukemia ip, median survival T/C
Assay: NCI In Vivo Anticancer Drug Screen. Data for tumor model P388 Leukemia (intraperitoneal) in B6D2F1 (BDF1) mice
Conditions: endpoint: median survival time, higher = longer survival
How it was run: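 Steps: implant the tumour, treat one group with compound and another with vehicle, record survival, then divide treated by control.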

[1] = dose: 100.0 mg/kg/injection, schedule: Q04DX003 (ip), vehicle: Klucel (hydroxypropylcellulose) (HPC)
[2] = dose: 200.0 mg/kg/injection, schedule: Q04DX003 (ip), vehicle: Klucel (hydroxypropylcellulose) (HPC)
[3] = dose: 50.0 mg/kg/injection, schedule: Q01DX009 (ip), vehicle: saline with Tween-80
[4] = dose: 100.0 mg/kg/injection, schedule: Q01DX009 (ip), vehicle: saline with Tween-80
[5] = dose: 200.0 mg/kg/injection, schedule: Q01DX009 (ip), vehicle: saline with Tween-80
[6] = dose: 100.0 mg/kg/injection, schedule: Q04DX003 (ip), vehicle: saline with Tween-80
[7] = dose: 200.0 mg/kg/injection, schedule: Q04DX003 (ip), vehicle: saline with Tween-80
[8] = dose: 400.0 mg/kg/injection, schedule: Q04DX003 (ip), vehicle: saline with Tween-80

Measured: T/C

CSc1ccccc1C(=O)NNS(=O)(=O)c1ccc(C)cc1
inactive: [1] 91 % of control | [2] 104 % of control | dose: 400.0 mg/kg/injection, schedule: Q04DX003 (ip), vehicle: Klucel (hydroxypropylcellulose) (HPC) 100 % of control

C[N+](C)(C)c1ccc2ccccc2n1
inactive: dose: 3.12 mg/kg/injection, schedule: Q01DX001 (ip), vehicle: Klucel (hydroxypropylcellulose) (HPC) 122 % of control | dose: 6.25 mg/kg/injection, schedule: Q01DX001 (ip), vehicle: Klucel (hydroxypropylcellulose) (HPC) 110 % of control | dose: 12.5 mg/kg/injection, schedule: Q01DX001 (ip), vehicle: Klucel (hydroxypropylcellulose) (HPC) 122 % of control | dose: 18.5 mg/kg/injection, schedule: Q01DX001 (ip), vehicle: Klucel (hydroxypropylcellulose) (HPC) 112 % of control | dose: 25.0 mg/kg/injection, schedule: Q01DX001 (ip), vehicle: saline 120 % of control | dose: 50.0 mg/kg/injection, schedule: Q01DX001 (ip), vehicle: saline 118 % of control

CC(=O)OC(C)(C)/C=C/C(=O)[C@](C)(O)[C@H]1[C@H](O)C[C@@]2(C)[C@@H]3CC=C4[C@@H](C[C@H](O)[C@H](O)C4(C)C)[C@]3(C)C(=O)C[C@]12C
inactive: dose: 80.0 mg/kg/injection, schedule: Q01DX010 (ip), vehicle: saline 109 % of control | dose: 120.0 mg/kg/injection, schedule: Q01DX010 (ip), vehicle: saline 122 % of control | dose: 180.0 mg/kg/injection, schedule: Q01DX010 (ip), vehicle: saline 118 % of control

O=C(/C=C/c1ccc(OCc2ccccc2)cc1)c1cccc(F)c1
inactive: [3] 100 % of control | [4] 100 % of control | [5] 92 % of control

O=C1c2ccccc2C(=O)N1OC1CCCCO1 (configuration not stated)
inactive: [4] 91 % of control | [6] 100 % of control | [5] 87 % of control | [7] 108 % of control | dose: 400.0 mg/kg/injection, schedule: Q01DX009 (ip), vehicle: saline with Tween-80 100 % of control | [8] 104 % of control

CN(C)c1ccc(/C=C\C(=O)c2ccccc2)cc1
inactive: dose: 100.0 mg/kg/injection, schedule: Q01DX009 (ip), vehicle: Klucel (hydroxypropylcellulose) (HPC) 100 % of control | dose: 200.0 mg/kg/injection, schedule: Q01DX009 (ip), vehicle: Klucel (hydroxypropylcellulose) (HPC) 110 % of control | dose: 400.0 mg/kg/injection, schedule: Q01DX009 (ip), vehicle: Klucel (hydroxypropylcellulose) (HPC) 120 % of control

O=C(NO)/C(Cc1ccccc1)=N/O
inactive: [3] 99 % of control | [4] 104 % of control | [5] 98 % of control

CCNC(C)(C)C(Cl)c1ccc(Cl)s1 (configuration not stated)
inactive: dose: 25.0 mg/kg/injection, schedule: Q01DX009 (ip), vehicle: Klucel (hydroxypropylcellulose) (HPC) 91 % of control | dose: 25.0 mg/kg/injection, schedule: Q04DX003 (ip), vehicle: saline with Tween-80 104 % of control | dose: 50.0 mg/kg/injection, schedule: Q01DX009 (ip), vehicle: Klucel (hydroxypropylcellulose) (HPC) 104 % of control | dose: 50.0 mg/kg/injection, schedule: Q04DX003 (ip), vehicle: saline with Tween-80 101 % of control | [6] 95 % of control

CC(=O)n1ccnc1/C=C\c1ccc([N+](=O)[O-])s1
inactive: dose: 50.0 mg/kg/injection, schedule: Q04DX003 (ip), vehicle: Klucel (hydroxypropylcellulose) (HPC) 95 % of control | [1] 110 % of control | [2] 105 % of control

CC1(c2cccs2)NC(=O)NC1=O (configuration not stated)
inactive: dose: 25.0 mg/kg/injection, schedule: Q01DX009 (ip), vehicle: saline with Tween-80 104 % of control | [3] 96 % of control and 124 % of control | [4] 112 % of control and 111 % of control | [6] 100 % of control | [5] 101 % of control | [7] 104 % of control and 98 % of control | [8] 100 % of control and 90 % of control
